Results on six compounds are retold here after ChEMBL document CHEMBL3243934, “Synthesis and antiinflammatory activity of cis-4,5,6,7,8,8a,9-hexahydro-alpha-methyl-5H-fluorene-2-acetic acid” (1977).

The structures appear in SMILES notation.

One test deals with Rattus norvegicus. Put plainly: Antiinflammatory activity in rat assessed as inhibition of carrageenan-induced paw edema at 150 mg/kg. The test is classed as functional.
The next test has as its system Oryctolagus cuniculus. Briefly: Antiinflammatory activity in rabbit assessed as inhibition of edema at 200 ug per site by reversed passive arthus test. Format: functional.

As to `CC(C(=O)O)c1ccc2c(c1)Cc1ccccc1-2` (stereo not given) [CICLOPROFEN], the inhibition in vivo at 150 mg/kg in the test on Rattus norvegicus is 66%. For the same compound, the “inhibition (INH)” value in the test on Oryctolagus cuniculus is recorded as 36%. Take `COc1ccc2c(c1)c(CC(=O)O)c(C)n2C(=O)c1ccc(Cl)cc1` [INDOMETHACIN]: the “inhibition (INH)” value with Oryctolagus cuniculus is 57%. As for `CC(C)Cc1ccc(C(C)C(=O)O)cc1` (stereo not given) [IBUPROFEN], in the test with Rattus norvegicus, the inhibition in vivo at 150 mg/kg was 56%. Moreover, the “inhibition (INH)” value in the test on Oryctolagus cuniculus was determined as 54%. Regarding `CCCCC1C(=O)N(c2ccccc2)N(c2ccccc2)C1=O` [PHENYLBUTAZONE], the inhibition in vivo at 150 mg/kg in the test on Rattus norvegicus is 59%. Moreover, the “inhibition (INH)” value in the test with Oryctolagus cuniculus is reported as 44%.

As to `COc1ccc2cc([C@H](C)C(=O)O)ccc2c1` [NAPROXEN], the “inhibition (INH)” value in the test with Oryctolagus cuniculus stood at 55%. On to `CC(C(=O)O)c1ccc2c(c1)C[C@H]1CCCC[C@@H]21` (stereo not given in full), for which the inhibition in vivo at 150 mg/kg in the test with Rattus norvegicus is 63%. Besides, the “inhibition (INH)” value in the test on Oryctolagus cuniculus was 55%.
